Measured values from patent US5135943A, “1H-imidazole derivative compounds and pharmaceutical compositions containing the same” (priority 1984, dated 1992).
Values after ≈ are worked out from the molar mass of the structure shown. Where two headings read alike, the source gives them in different places.

Tests used:
Trichophyton rubrus = test: MIC by two-fold dilution, Trichophyton rubrus; assay type: cell-based; conditions: 10 strains, read-out: Minimum Inhibitory Concentration
Procedure: Minimum Inhibitory Concentrations (MICS) of Sertaconazole and Miconazole against 107 yeasts, 47 dermatophytes and 4 fungi were determined by a two-fold dilution method.

Gram-positive germs = test: MIC by two-fold dilution, Gram-positive germs; assay type: cell-based; conditions: 21 strains; read-out: Minimum Inhibitory Concentration
C. albicans 14 = test: MIC, comparative in vitro testing against Martin compounds; assay type: cell-based; conditions: Casitone medium
Procedure: (§1) Minimum Inhibitory Concentrations (MICS) of Sertaconazole were also measured in comparison to four of the compounds described in the Martin Patent, including a compound, referred to herein as Martin Compound 1, which has the same structure as Sertaconazole, expect that the sulfur in the benzothiophene ring is replaced by an oxygen.
(§2) The results of comparative in vitro testing of Sertaconazole and these four Martin compounds are shown in the following Table II against 16 microorganisms. The reading time is the time interval from the time of inoculation to the time of measurement.

C. albicans 15 = test: as above; assay type: cell-based; conditions: Casitone medium
Procedure: as §1, §2

C. albicans 31 = test: as above; assay type: cell-based; conditions: YNB medium
Procedure: as §1, §2

C. albicans 32 = test: as above; assay type: cell-based; conditions: YNB medium
Procedure: as §1, §2

C. albicans ATCC E-10231 = test: as above; assay type: cell-based; conditions: Casitone medium
Procedure: as §1, §2

C. guillermondii = test: as above; assay type: cell-based
Procedure: as §1, §2

C. krusei 24 = test: as above; assay type: cell-based
Procedure: as §1, §2

C. parapsilosis 19 = test: as above; assay type: cell-based
Procedure: as §1, §2

C. pseudotropicalis 21 = test: as above; assay type: cell-based; conditions: Sabouraud medium
Procedure: as §1, §2

C. stellatoidea 36232 = test: as above; assay type: cell-based
Procedure: as §1, §2

C. tropicalis 25 = test: as above; assay type: cell-based; conditions: YNB medium
Procedure: as §1, §2

16 microorganisms = test: Geometric mean of all MIC measurements, comparative in vitro testing; assay type: cell-based; conditions: for MIC: read-out: Geometric means of MIC
Procedure: as §1, §2

[1] = Comparison of acute toxicity of Sertaconazole and Miconazole (Table IV); assay type: in vivo
Procedure: Oral, intraperitoneal and subcutaneous acute toxicity of sertaconazole and miconazole have been investigated. LD50 in mouse and rat, male and female, were measured.

Compound: Clc1ccc(C(Cn2ccnc2)OCc2csc3c(Cl)cccc23)c(Cl)c1 (stereo not shown) [Sertaconazole]
- MIC (Trichophyton rubrus): 0.4 µg/mL (≈ 0.914 µM)
- MIC (Gram-positive germs): 0.97 µg/mL (≈ 2.22 µM)
- MIC (C. albicans 14; Candida albicans, 14, 48 h, reading time 48 h, SZ vs M2): 0.25 µg/mL (≈ 0.571 µM)
- MIC (C. albicans 14; Candida albicans, 14, 48 h, reading time 48 h, SZ vs M3): 0.5 µg/mL (≈ 1.14 µM)
- MIC (C. albicans 14; Candida albicans, 14, 48 h, reading time 48 h, SZ vs M4): 0.5 µg/mL (≈ 1.14 µM)
- MIC (C. albicans 14; Candida albicans, 14, 60 h, reading time 60 h, SZ vs M1): 1 µg/mL (≈ 2.28 µM)
- MIC (C. albicans 15; Candida albicans, 15, 48 h, reading time 48 h, SZ vs M2): 0.06 µg/mL (≈ 0.137 µM)
- MIC (C. albicans 15; Candida albicans, 15, 48 h, reading time 48 h, SZ vs M3): 0.03 µg/mL (≈ 0.0685 µM)
- MIC (C. albicans 15; Candida albicans, 15, 48 h, reading time 48 h, SZ vs M4): 0.03 µg/mL (≈ 0.0685 µM)
- MIC (C. albicans 15; Candida albicans, 15, 60 h, reading time 60 h, SZ vs M1): 0.5 µg/mL (≈ 1.14 µM)
- MIC (C. albicans 31; Candida albicans, 31, reading time 48 h, SZ vs M2, read-out: MIC): 4 µg/mL (≈ 9.14 µM)
- MIC (C. albicans 31; Candida albicans, 31, reading time 60 h, SZ vs M1, read-out: MIC): 8 µg/mL (≈ 18.3 µM)
- MIC (C. albicans 31; reading time 48 h, SZ vs M3): 4 µg/mL (≈ 9.14 µM)
- MIC (C. albicans 31; reading time 48 h, SZ vs M4): 4 µg/mL (≈ 9.14 µM)
- MIC (C. albicans 32; Candida albicans, 32, reading time 48 h, SZ vs M2, read-out: MIC): 4 µg/mL (≈ 9.14 µM)
- MIC (C. albicans 32; Candida albicans, 32, reading time 60 h, SZ vs M1, read-out: MIC): 8 µg/mL (≈ 18.3 µM)
- MIC (C. albicans 32; reading time 48 h, SZ vs M3): 4 µg/mL (≈ 9.14 µM)
- MIC (C. albicans 32; reading time 48 h, SZ vs M4): 4 µg/mL (≈ 9.14 µM)
- MIC (C. albicans ATCC E-10231; Candida albicans, ATCCE10231, reading time 48 h, SZ vs M2, read-out: MIC): 0.5 µg/mL (≈ 1.14 µM)
- MIC (C. albicans ATCC E-10231; Candida albicans, ATCCE10231, reading time 60 h, SZ vs M1, read-out: MIC): 1 µg/mL (≈ 2.28 µM)
- MIC (C. albicans ATCC E-10231; reading time 48 h, SZ vs M3): 0.5 µg/mL (≈ 1.14 µM)
- MIC (C. albicans ATCC E-10231; reading time 48 h, SZ vs M4): 0.5 µg/mL (≈ 1.14 µM)
- MIC (C. guillermondii; 48 h): 0.125 µg/mL (≈ 0.286 µM)
- MIC (C. guillermondii; 48 h, Casitone medium, reading time 48 h, SZ vs M2, read-out: MIC): 0.25 µg/mL (≈ 0.571 µM)
- MIC (C. guillermondii; 48 h, Casitone medium, reading time 48 h, SZ vs M3, read-out: MIC): 0.25 µg/mL (≈ 0.571 µM)
- MIC (C. guillermondii; 48 h, Casitone medium, reading time 48 h, SZ vs M4, read-out: MIC): 0.25 µg/mL (≈ 0.571 µM)
- MIC (C. guillermondii; 48 h, YNB medium, reading time 48 h, SZ vs M2, read-out: MIC): 0.25 µg/mL (≈ 0.571 µM)
- MIC (C. guillermondii; 60 h, Casitone medium, reading time 60 h, SZ vs M1, read-out: MIC): 0.5 µg/mL (≈ 1.14 µM)
- MIC (C. guillermondii; 60 h, YNB medium, reading time 60 h, SZ vs M1, read-out: MIC): 0.25 µg/mL (≈ 0.571 µM)
- MIC (C. guillermondii; YNB medium, reading time 48 h, SZ vs M4): 0.125 µg/mL (≈ 0.286 µM)
- MIC (C. krusei 24; Casitone medium, reading time 48 h, SZ vs M4): 0.125 µg/mL (≈ 0.286 µM)
- MIC (C. krusei 24; Pichia kudriavzevii, 24, 48 h): 0.125 µg/mL (≈ 0.286 µM)
- MIC (C. krusei 24; Pichia kudriavzevii, 24, 48 h, Casitone medium, reading time 48 h, SZ vs M2, read-out: MIC): 0.25 µg/mL (≈ 0.571 µM)
- MIC (C. krusei 24; Pichia kudriavzevii, 24, 48 h, YNB medium, reading time 48 h, SZ vs M2, read-out: MIC): 0.25 µg/mL (≈ 0.571 µM)
- MIC (C. krusei 24; Pichia kudriavzevii, 24, 48 h, YNB medium, reading time 48 h, SZ vs M3, read-out: MIC): 0.25 µg/mL (≈ 0.571 µM)
- MIC (C. krusei 24; Pichia kudriavzevii, 24, 48 h, YNB medium, reading time 48 h, SZ vs M4, read-out: MIC): 0.25 µg/mL (≈ 0.571 µM)
- MIC (C. krusei 24; Pichia kudriavzevii, 24, 60 h, Casitone medium, reading time 60 h, SZ vs M1, read-out: MIC): 1 µg/mL (≈ 2.28 µM)
- MIC (C. krusei 24; Pichia kudriavzevii, 24, 60 h, YNB medium, reading time 60 h, SZ vs M1, read-out: MIC): 0.25 µg/mL (≈ 0.571 µM)
- MIC (C. parapsilosis 19; 19, 48 h, Sabouraud medium, reading time 48 h, SZ vs M2): 0.25 µg/mL (≈ 0.571 µM)
- MIC (C. parapsilosis 19; 19, 48 h, Sabouraud medium, reading time 48 h, SZ vs M3): 0.25 µg/mL (≈ 0.571 µM)
- MIC (C. parapsilosis 19; 19, 48 h, Sabouraud medium, reading time 48 h, SZ vs M4): 0.25 µg/mL (≈ 0.571 µM)
- MIC (C. parapsilosis 19; 19, 48 h, YNB medium, reading time 48 h, SZ vs M2): 0.25 µg/mL (≈ 0.571 µM)
- MIC (C. parapsilosis 19; 19, 48 h, YNB medium, reading time 48 h, SZ vs M3): 0.5 µg/mL (≈ 1.14 µM)
- MIC (C. parapsilosis 19; 19, 48 h, YNB medium, reading time 48 h, SZ vs M4): 0.5 µg/mL (≈ 1.14 µM)
- MIC (C. parapsilosis 19; 19, 60 h, Sabouraud medium, reading time 60 h, SZ vs M1): 1 µg/mL (≈ 2.28 µM)
- MIC (C. parapsilosis 19; 19, 60 h, YNB medium, reading time 60 h, SZ vs M1): 0.5 µg/mL (≈ 1.14 µM)
- MIC (C. pseudotropicalis 21; Kluyveromyces marxianus, 21, reading time 48 h, SZ vs M2, read-out: MIC): 0.03 µg/mL (≈ 0.0685 µM)
- MIC (C. pseudotropicalis 21; Kluyveromyces marxianus, 21, reading time 60 h, SZ vs M1, read-out: MIC): 0.03 µg/mL (≈ 0.0685 µM)
- MIC (C. pseudotropicalis 21; reading time 48 h, SZ vs M3): 0.03 µg/mL (≈ 0.0685 µM)
- MIC (C. pseudotropicalis 21; reading time 48 h, SZ vs M4): 0.03 µg/mL (≈ 0.0685 µM)
- MIC (C. stellatoidea 36232; Candida albicans, 36232, 48 h, Casitone medium, reading time 48 h, SZ vs M2): 0.06 µg/mL (≈ 0.137 µM)
- MIC (C. stellatoidea 36232; Candida albicans, 36232, 48 h, Casitone medium, reading time 48 h, SZ vs M3): 0.06 µg/mL (≈ 0.137 µM)
- MIC (C. stellatoidea 36232; Candida albicans, 36232, 48 h, Casitone medium, reading time 48 h, SZ vs M4): 0.06 µg/mL (≈ 0.137 µM)
- MIC (C. stellatoidea 36232; Candida albicans, 36232, 48 h, Sabouraud medium, reading time 48 h, SZ vs M2): 0.25 µg/mL (≈ 0.571 µM)
- MIC (C. stellatoidea 36232; Candida albicans, 36232, 48 h, Sabouraud medium, reading time 48 h, SZ vs M3): 0.5 µg/mL (≈ 1.14 µM)
- MIC (C. stellatoidea 36232; Candida albicans, 36232, 48 h, Sabouraud medium, reading time 48 h, SZ vs M4): 0.5 µg/mL (≈ 1.14 µM)
- MIC (C. stellatoidea 36232; Candida albicans, 36232, 48 h, YNB medium, reading time 48 h, SZ vs M2): 1 µg/mL (≈ 2.28 µM)
- MIC (C. stellatoidea 36232; Candida albicans, 36232, 48 h, YNB medium, reading time 48 h, SZ vs M3): 0.5 µg/mL (≈ 1.14 µM)
- MIC (C. stellatoidea 36232; Candida albicans, 36232, 48 h, YNB medium, reading time 48 h, SZ vs M4): 0.5 µg/mL (≈ 1.14 µM)
- MIC (C. stellatoidea 36232; Candida albicans, 36232, 60 h, Casitone medium, reading time 60 h, SZ vs M1): 0.25 µg/mL (≈ 0.571 µM)
- MIC (C. stellatoidea 36232; Candida albicans, 36232, 60 h, Sabouraud medium, reading time 60 h, SZ vs M1): 1 µg/mL (≈ 2.28 µM)
- MIC (C. stellatoidea 36232; Candida albicans, 36232, 60 h, YNB medium, reading time 60 h, SZ vs M1): 4 µg/mL (≈ 9.14 µM)
- MIC (C. tropicalis 25; Candida tropicalis, 25, 48 h, reading time 48 h, SZ vs M2): 8 µg/mL (≈ 18.3 µM)
- MIC (C. tropicalis 25; Candida tropicalis, 25, 48 h, reading time 48 h, SZ vs M3): 4 µg/mL (≈ 9.14 µM)
- MIC (C. tropicalis 25; Candida tropicalis, 25, 48 h, reading time 48 h, SZ vs M4): 4 µg/mL (≈ 9.14 µM)
- MIC (C. tropicalis 25; Candida tropicalis, 25, 60 h, reading time 60 h, SZ vs M1): 8 µg/mL (≈ 18.3 µM)
- MIC (16 microorganisms; 48 h, SZ vs M2, reading time 48 h): 0.366 µg/mL (≈ 0.836 µM)
- MIC (16 microorganisms; 48 h, SZ vs M3, reading time 48 h): 0.336 µg/mL (≈ 0.768 µM)
- MIC (16 microorganisms; 48 h, SZ vs M4, reading time 48 h): 0.336 µg/mL (≈ 0.768 µM)
- MIC (16 microorganisms; 60 h, SZ vs M1, reading time 60 h): 0.876 µg/mL (≈ 2 µM)
- Increase of Sertaconazole activity (16 microorganisms; relative to Martin Compound 1): 24%
- Increase of Sertaconazole activity (16 microorganisms; relative to Martin Compound 2): 54%
- Increase of Sertaconazole activity (16 microorganisms; relative to Martin Compound 3): 16%
- Increase of Sertaconazole activity (16 microorganisms; relative to Martin Compound 4): 54%
- acute toxicity relative to Miconazole ([1]; oral and intraperitoneal routes): an order of magnitude less toxic
- acute toxicity relative to Miconazole ([1]; subcutaneous): significantly less
